In patent US20250215039A1, “NUCLEOSIDES FOR TREATING CANCER” (PRIMEFOUR THERAPEUTICS, INC., priority 2022, published 2025):
Like-named read-outs stand apart in the source and are kept apart here.

Tested on: cancer cell lines
Assay: Cancer cell proliferation activity (CellTiterGlo, 72 h)
Type: cell-based
Settings: 72 h, 72 h, read-out: IC50 cell proliferation
How it was run: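 Readout is CellTiterGlo luminescence after 72 h compound exposure (0.1% DMSO final), started one day post-seeding, at 37 °C.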

Nc1nc(F)nc2c1ncn2[C@@H]1O[C@H](CO)[C@@H](O)[C@H]1O [compound 184, (2R,3R,4S,5R)-2-(6-amino-2-fluoro-9H-purin-9-yl)-5-(hydroxymethyl)tetrahydrofuran-3,4-diol]
IC50 (5637 (bladder)): 190 nM
IC50 (CLS439 (bladder)): 60 nM
IC50 (HS729 (muscle)): 100 nM
IC50 (J82 (bladder)): 100 nM
IC50 (JAR (placenta)): 40 nM
IC50 (MT3 (breast)): 90 nM
IC50 (PANCI (pancreas)): 130 nM
IC50 (PC3 (prostate)): 40 nM
IC50 (RD (muscle)): 60 nM
IC50 (T24 (bladder)): 60 nM
IC50 (Homo sapiens, 22Rv1, 72 h, 22RV1 (prostate)): 220 nM
IC50 (Homo sapiens, 786-0, 72 h, 786O (kidney)): 50 nM
IC50 (Homo sapiens, A204, 72 h, A204 (muscle)): 20 nM
IC50 (Homo sapiens, A549, 72 h, A549 (lung)): 40 nM
IC50 (Homo sapiens, A673, 72 h, A673 (bone)): 270 nM
IC50 (Homo sapiens, A2780, 72 h, A2780 (ovary)): 150 nM
IC50 (Homo sapiens, A-375, 72 h, A375 (skin)): 40 nM
IC50 (Homo sapiens, A-431, 72 h, A431 (skin)): 40 nM
IC50 (Homo sapiens, ACHN, ACHN (kidney)): 20 nM
IC50 (Homo sapiens, ASPC1, 72 h, ASPC1 (pancreas)): 30 nM
IC50 (Homo sapiens, BT-20, 72 h, BT20 (breast)): 30 nM
IC50 (Homo sapiens, BXPC-3, 72 h, BXPC3 (pancreas)): 80 nM
IC50 (Homo sapiens, C-33-A, C33A (endometrial)): 50 nM
IC50 (Homo sapiens, CAKI-1, 72 h, CAKI1 (kidney)): 10 nM
IC50 (Homo sapiens, COLO 205, 72 h, COLO205 (colon)): 120 nM
IC50 (Homo sapiens, COLO-678, 72 h, COLO678 (colon)): 60 nM
IC50 (Homo sapiens, Ca-Ski, CASKI (endometrial)): 30 nM
IC50 (Homo sapiens, Caco-2, 72 h, CACO2 (colon)): 190 nM
IC50 (Homo sapiens, Calu-6, 72 h, CALU6 (lung)): 30 nM
IC50 (Homo sapiens, DLD-1, 72 h, DLD1 (colon)): 90 nM
IC50 (Homo sapiens, DU-145, 72 h, DU145 (prostate)): 20 nM
IC50 (Homo sapiens, EFO-21, 72 h, EFO21 (ovary)): 70 nM
IC50 (Homo sapiens, EJ-28, 72 h, EJ28 (bladder)): 30 nM
IC50 (Homo sapiens, Granta-519, 72 h, GRANTA-519 (hematological)): 110 nM
IC50 (Homo sapiens, HCT-15, 72 h, HCT15 (colon)): 40 nM
IC50 (Homo sapiens, HCT-116, 72 h, HCT116 (colon)): 140 nM
IC50 (Homo sapiens, HEK293, 72 h, HEK293 (kidney)): 50 nM
IC50 (Homo sapiens, HL-60, 72 h, HL-60 (hematological)): 40 nM
IC50 (Homo sapiens, HT-29, 72 h, HT29 (colon)): 70 nM
IC50 (Homo sapiens, HT-1080, 72 h, HT1080 (connective tissue)): 70 nM
IC50 (Homo sapiens, HeLa, HELA (endometrial)): 70 nM
IC50 (Homo sapiens, HepG2, 72 h, HEPG2 (liver)): 40 nM
IC50 (Homo sapiens, Hs-578T, HS578T (breast)): 80 nM
IC50 (Homo sapiens, IGROV-1, 72 h, IGROV1 (ovary)): 50 nM
IC50 (Homo sapiens, IMR-90, 72 h, IMR90 (lung)): 30 nM
IC50 (Homo sapiens, JEG-3, 72 h, JEG3 (placenta)): 40 nM
IC50 (Homo sapiens, JIMT-1, 72 h, JIMT1 (breast)): 20 nM
IC50 (Homo sapiens, K562, 72 h, K-562 (hematological)): 120 nM
IC50 (Homo sapiens, Kasumi 1, 72 h, KASUMI-1 (hematological)): 10 nM
IC50 (Homo sapiens, L-363, 72 h, L-363 (hematological)): 20 nM
IC50 (Homo sapiens, LoVo, LOVO (colon)): 20 nM
IC50 (Homo sapiens, MCF7, 72 h, MCF7 (breast)): 100 nM
IC50 (Homo sapiens, MDA-MB-231, 72 h, MDAMB231 (breast)): 40 nM
IC50 (Homo sapiens, MDA-MB-435, 72 h, MDAMB435 (skin)): 50 nM
IC50 (Homo sapiens, MDA-MB-436, 72 h, MDAMB436 (breast)): 40 nM
IC50 (Homo sapiens, MDA-MB-468, 72 h, MDAMB468 (breast)): 80 nM
IC50 (Homo sapiens, MG-63, 72 h, MG63 (bone)): 390 nM
IC50 (Homo sapiens, MHH-ES-1, 72 h, MHHES1 (bone)): 70 nM
IC50 (Homo sapiens, MIA PaCa-2, 72 h, MIAPACA2 (pancreas)): 130 nM
IC50 (Homo sapiens, MINO, MINO (hematological)): 10 nM
IC50 (Homo sapiens, MV4-11, 72 h, MV4-11 (hematological)): 20 nM
IC50 (Homo sapiens, NCI-H23, 72 h, NCI-H23 (lung)): 40 nM
IC50 (Homo sapiens, NCI-H82, 72 h, NCIH82 (lung)): 60 nM
IC50 (Homo sapiens, NCI-H292, 72 h, NCIH292 (lung)): 90 nM
IC50 (Homo sapiens, NCI-H460, 72 h, NCIH460 (lung)): 40 nM
IC50 (Homo sapiens, OVCAR-3, 72 h, OVCAR3 (ovary)): 40 nM
IC50 (Homo sapiens, OVCAR-4, 72 h, OVCAR4 (ovary)): 50 nM
IC50 (Homo sapiens, PLC-PRF-5, 72 h, PLCPRF5 (liver)): 230 nM
IC50 (Homo sapiens, Panc1005, 72 h, PANC1005 (pancreas)): 50 nM
IC50 (Homo sapiens, Ramos, RAMOS (hematological)): 140 nM
IC50 (Homo sapiens, SAOS-2, 72 h, SAOS2 (bone)): 50 nM
IC50 (Homo sapiens, SF-268, 72 h, SF268 (brain)): 160 nM
IC50 (Homo sapiens, SF-295, 72 h, SF295 (brain)): 160 nM
IC50 (Homo sapiens, SK-BR-3, 72 h, SKBR3 (breast)): 10 nM
IC50 (Homo sapiens, SK-HEP1, 72 h, SKHEP1 (liver)): 20 nM
IC50 (Homo sapiens, SK-LMS-1, 72 h, SKLMS1 (uterus)): 40 nM
IC50 (Homo sapiens, SK-MEL-5, 72 h, SKMEL5 (skin; SKMELS [sic] in Table 9E)): 50 nM
IC50 (Homo sapiens, SK-MEL-28, 72 h, SKMEL28 (skin)): 100 nM
IC50 (Homo sapiens, SK-N-AS, SKNAS (brain)): 30 nM
IC50 (Homo sapiens, SK-N-SH, SKNSH (brain)): 30 nM
IC50 (Homo sapiens, SK-OV-3, 72 h, SKOV3 (ovary)): 50 nM
IC50 (Homo sapiens, SNB-75, 72 h, SNB75 (brain)): 100 nM
IC50 (Homo sapiens, SU-DHL10, 72 h, SU-DHL-10 (hematological)): 180 nM
IC50 (Homo sapiens, SU-DHL-6, 72 h, SU-DHL-6 (hematological)): 10 nM
IC50 (Homo sapiens, SW-620, 72 h, SW620 (colon)): 30 nM
IC50 (Homo sapiens, TE-671, 72 h, TE671 (muscle)): 150 nM
IC50 (Homo sapiens, THP-1, 72 h, THP-1 (hematological)): 20 nM
IC50 (Homo sapiens, U2OS, U20S (bone; U2OS in Table 9E)): 40 nM
IC50 (Homo sapiens, U-87 MG, U87MG (brain)): 30 nM
IC50 (Homo sapiens, UMUC3, 72 h, UMUC3 (bladder)): 30 nM
IC50 (Homo sapiens, UO-31, 72 h, UO31 (kidney)): 50 nM
IC50 (Homo sapiens, WSU-NHL, WSU-NHL (hematological)): 30 nM
IC50 (NCI-H358M, NCIH358M (lung)): 70 nM
IC50 (PBMC, PBMC (hematological)): 180 nM
IC50 (RD-ES, RDES (bone)): 20 nM
